Source: patent US11780826B2 (Amgen Inc., priority 2017, dated 2023)

System: Bovine cardiac myofibrils
Experiment: In vitro model of dose-dependent myofibril ATPase modulation (AC1.4, pyruvate kinase/lactate dehydrogenase-coupled ATPase assay at pCa25)
Assay type: biochemical
Conditions: concentration at which ATPase activity was 1.4-fold higher than the bottom of the dose curve, mean of a minimum of two independent tests
Procedure, shortened: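 We measure calcium-buffered ATPase activity of detergent-skinned bovine cardiac myofibrils at pH 6.80 and 22° C with 1 mM ATP, using a PK/LDH-coupled NADH readout at 340 nm. Values come from four-parameter dose-response fits, averaged over at least two independent runs.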

| AC1.4 [µM] | SMILES |
| --- | --- |
| 5.723 | O=C(NCc1ccc(C(F)(F)F)cc1)[C@H]1CCCN1C(=O)[C@H]1CCCN(S(=O)(=O)N2CC(F)(F)C2)C1 [Example 703, 1-(((3S)-1-((3,3-difluoro-1-azetidinyl)sulfonyl)-3-piperidinyl)carbonyl)-N-(4-(trifluoromethyl)benzyl)-D-prolinamide] |
| 0.6904 | N#CC1CN(S(=O)(=O)N2CCC[C@H](C(=O)N3CCC[C@@H]3C(=O)NCc3ccc(F)c(Cl)c3)C2)C1 [Example 272, N-(3-chloro-4-fluorobenzyl)-1-(((3S)-1-((3-cyano-1-azetidinyl)sulfonyl)-3-piperidinyl)carbonyl)-D-prolinamide] |
| 0.8393 | O=C(NCc1ccc(C(F)(F)F)cc1)[C@H]1CCCN1C(=O)[C@H]1CCCN(S(=O)(=O)N2CC(OCC(F)F)C2)C1 [Example 311, 1-(((3S)-1-((3-(2,2-difluoroethoxy)-1-azetidinyl)sulfonyl)-3-piperidinyl)carbonyl)-N-(4-(trifluoromethyl)benzyl)-D-prolinamide] |
| 0.7671 | O=C(N[C@@H](c1cc(F)c(Cl)cc1F)C1CC1)[C@H]1C[C@H]2C[C@H]2N1C(=O)c1ccnc(S(=O)(=O)C2CC2)c1 [Example 295, (1R,3R,5R)-N-((R)-(4-chloro-2,5-difluorophenyl)(cyclopropyl)methyl)-2-((2-(cyclopropylsulfonyl)-4-pyridinyl)carbonyl)-2-azabicyclo[3.1.0]hexane-3-carboxamide] |
| 0.3859 | CC[C@H](NC(=O)[C@H]1CCCN1C(=O)[C@H]1CCCN(S(=O)(=O)N2CC(C#N)C2)C1)c1ccc(C(F)(F)F)cc1 [Example 195, 1-(((3S)-1-((3-cyano-1-azetidinyl)sulfonyl)-3-piperidinyl)carbonyl)-N-((1S)-1-(4-(trifluoromethyl)phenyl)propyl)-D-prolinamide] |
| 1.826 | NS(=O)(=O)c1cccc(C(=O)N2CC(F)(F)C[C@@H]2C(=O)N[C@@H](c2ccc(C(F)(F)F)cc2F)C2CC2)c1 [Example 446, N-((R)-cyclopropyl(2-fluoro-4-(trifluoromethyl)phenyl)methyl)-4,4-difluoro-1-(3-sulfamoylbenzoyl)-D-prolinamide] |
| 1.9174 | O=C(NCc1ccc(C(F)(F)F)cc1)[C@H]1CCCN1C(=O)c1cccc(S(=O)(=O)N2CC(F)(F)C2)c1 [Example 461, 1-((3-((3,3-difluoro-1-azetidinyl)sulfonyl)phenyl)carbonyl)-N-(4-(trifluoromethyl)benzyl)-D-prolinamide] |
| 6.7185 | CC(NC(=O)[C@H]1CCCN1C(=O)[C@H]1CCCN(S(=O)(=O)N2CC(C#N)C2)C1)c1ccc(F)cc1 (stereo partly drawn) [Example 729, 1-(((3S)-1-((3-cyano-1-azetidinyl)sulfonyl)-3-piperidinyl)carbonyl)-N-((1R)-1-(4-fluorophenyl)ethyl)-D-prolinamide,1-(((3S)-1-((3-cyano-1-azetidinyl)sulfonyl)-3-piperidinyl)carbonyl)-N-((1S)-1-(4-fluorophenyl)ethyl)-D-prolinamide] |
| 3.5615 | O=C(N[C@@H](c1ccc(C(F)(F)F)cc1F)C1CC1)[C@H]1C[C@H](F)CN1C(=O)c1cccc(C2(F)COC2)c1 [Example 599, (4S)-N-((R)-cyclopropyl(2-fluoro-4-(trifluoromethyl)phenyl)methyl)-4-fluoro-1-(3-(3-fluoro-3-oxetanyl)benzoyl)-D-prolinamide] |
| 1.7235 | N#CC1CN(S(=O)(=O)N2CCC[C@H](C(=O)N3CCC[C@@H]3C(=O)NCc3cc(F)ccc3Cl)C2)C1 [Example 440, N-(2-chloro-5-fluorobenzyl)-1-(((3S)-1-((3-cyano-1-azetidinyl)sulfonyl)-3-piperidinyl)carbonyl)-D-prolinamide] |
| 9.115 | CS(=O)(=O)c1cncc(C(=O)N2[C@@H](C(=O)N[C@@H](c3cc(F)c(Cl)cc3F)C(F)F)C[C@H]3C[C@H]32)c1 [Example 817, (1R,3R,5R)-N-((S)-1-(4-chloro-2,5-difluorophenyl)-2,2-difluoroethyl)-2-(5-(methylsulfonyl)nicotinoyl)-2-azabicyclo[3.1.0]hexane-3-carboxamide] |
| 4.897 | CS(=O)(=O)c1cccc(C(=O)N2CCC[C@@H]2C(=O)N[C@@H](c2ccc(C(F)(F)F)cc2F)C2(F)COC2)c1 [Example 673, N-((S)-(3-fluoro-3-oxetanyl)(2-fluoro-4-(trifluoromethyl)phenyl)methyl)-1-(3-(methylsulfonyl)benzoyl)-D-prolinamide] |
| 2.4485 | N#CC1CN(S(=O)(=O)N2CCO[C@H](C(=O)N3CCC[C@@H]3C(=O)NCc3cc(F)cc(F)c3)C2)C1 [Example 517, 1-(((2S)-4-((3-cyano-1-azetidinyl)sulfonyl)-2-morpholinyl)carbonyl)-N-(3,5-difluorobenzyl)-D-prolinamide] |
| 1.681 | N#CC1CN(S(=O)(=O)N2CCC[C@H](C(=O)N3CCC[C@@H]3C(=O)NCc3ccc(OC(F)F)cc3)C2)C1 [Example 435, 1-(((3S)-1-((3-cyano-1-azetidinyl)sulfonyl)-3-piperidinyl)carbonyl)-N-(4-(difluoromethoxy)benzyl)-D-prolinamide] |
| 0.8707 | Cc1cc(C(=O)N2[C@@H](C(=O)N[C@@H](c3ccc(C(F)(F)F)cc3F)C3COC3)C[C@H]3C[C@H]32)cc(S(C)(=O)=O)c1 [Example 323, (1R,3R,5R)-N-((R)-(2-fluoro-4-(trifluoromethyl)phenyl)(3-oxetanyl)methyl)-2-(3-methyl-5-(methylsulfonyl)benzoyl)-2-azabicyclo[3.1.0]hexane-3-carboxamide] |
| 0.2569 | CNc1ccc(S(C)(=O)=O)cc1C(=O)N1[C@@H](C(=O)N[C@@H](c2ccc(C(F)(F)F)cc2F)C2CC2)C[C@H]2C[C@H]21 [Example 148, (1R,3R,5R)-N-((R)-cyclopropyl(2-fluoro-4-(trifluoromethyl)phenyl)methyl)-2-(2-(methylamino)-5-(methylsulfonyl)benzoyl)-2-azabicyclo[3.1.0]hexane-3-carboxamide] |
| 0.5978 | N#Cc1ccc(CNC(=O)[C@H]2CCCN2C(=O)c2cccc(S(=O)(=O)N3CC(C#N)C3)c2)cc1 [Example 250, 1-((3-((3-cyano-1-azetidinyl)sulfonyl)phenyl)carbonyl)-N-(4-cyanobenzyl)-D-prolinamide] |
| 4.9025 | N#CC1CN(S(=O)(=O)N2CCC[C@H](C(=O)N3CCC[C@@H]3C(=O)NCc3cc(C(F)(F)F)ccc3F)C2)C1 [Example 674, 1-(((3S)-1-((3-cyano-1-azetidinyl)sulfonyl)-3-piperidinyl)carbonyl)-N-(2-fluoro-5-(trifluoromethyl)benzyl)-D-prolinamide] |
| 0.9758 | CS(=O)(=O)c1cccc(C(=O)N2C[C@@H](F)C[C@@H]2C(=O)N[C@@H](c2ccc(Cl)cc2F)C2COC2)c1 [Example 352, (4S)-N-((R)-(4-chloro-2-fluorophenyl)(3-oxetanyl)methyl)-4-fluoro-1-(3-(methylsulfonyl)benzoyl)-D-prolinamide] |
| 3.505 | CC(NC(=O)[C@H]1CCCN1C(=O)[C@H]1CCCN(S(=O)(=O)N2CC(C#N)C2)C1)c1ccc(OC(F)F)cc1 (stereo partly drawn) [Example 594, (2R)-1-((S)-1-((3-cyanoazetidin-1-yl)sulfonyl)piperidine-3-carbonyl)-N-(1-(4-(difluoromethoxy)phenyl)ethyl)pyrrolidine-2-carboxamide] |
